Test results: patent US11399455B1, “Cast pellets for planting seeds” (Ball Horticultural Company, priority 2010, dated 2022)

Key:
[1] = test system: Marigolds African Marvel Orange seeds; assay: Growth regulator in casting: germination and plant height; type: in vivo; conditions: count date 10; for Germ (%): 25° C.
Protocol: (§1) A single seed was placed in every mold cavity of a mold containing 108 cavities of dimensions 0.25 inch (6.4 mm) in length by 0.125 inch (3.2 mm) in width and 0.125 inch (3.2 mm) in depth. The following growth regulator concentrations were applied to seed via the casting method: 2 ppm, 4 ppm, and 8 ppm. PEG 4000 (100 g) was weighed out and put into a beaker. This was done four times. Each beaker with the PEG 4000 was heated to 111° F. until the PEG 4000 completely melted. The growth regulator concentrations were made by dissolving a given weight of the plant grown retardant ancymidol (α-cyclopropyl-α-(p-methoxyphenyl)-5-pyrimidinemethanol; A-REST) powder into 1 ml of acetone, as follows: 6.4 mg A-REST into 1 ml of acetone for 2 ppm; 12.8 mg A-REST into 1 ml of acetone for 4 ppm; and 25.6 mg A-REST into 1 ml acetone for 8 ppm. Once dissolved, the specified concentrations of A-REST were added to the beakers with the melted PEG and mixed on the heated stir plate until well blended; 65 μl was pipetted into the cavities that contained the seeds. Once the entire mold was filled it was set aside to cool. […] The castings were then removed from the mold.
(§2) The 108 castings (seed plus PEG 4000) containing the A-REST concentrations, along with a cast only (no added A-REST) and a raw control, were sown in a plug tray to evaluate germination. Seeds were sown at 25° C. The plug trays were run through a watering tunnel and then put into a Stage 1 mist chamber. Upon radical emergence, the plugs were placed in a Stage 2 chamber. The amount of time in Stage 1 and Stage 2 was dependent on the crop.
(§3) Plant height was measured and recorded on the same day seed germination was recorded.

[2] = test system: Impatiens Dazzler White seeds; assay: as above; type: in vivo; conditions: count date 11; for Germ (%): 25° C.
Protocol: as §1, §2, §3

SMILES: COc1ccc(C(O)(c2cncnc2)C2CC2)cc1 (stereo not drawn) [A-REST, α-cyclopropyl-α-(p-methoxyphenyl)-5-pyrimidinemethanol]
- Germ (%) ([1]; 2 ppm in PEG 4000 casting): 98%
- Ave. Height (mm) ([1]; 2 ppm in PEG 4000 casting): 12 mm
- Germ (%) ([1]; 4 ppm in PEG 4000 casting): 87%
- Ave. Height (mm) ([1]; 4 ppm in PEG 4000 casting): 12 mm
- Germ (%) ([1]; 8 ppm in PEG 4000 casting): 82%
- Ave. Height (mm) ([1]; 8 ppm in PEG 4000 casting): 12 mm
- Germ (%) ([2]; 2 ppm in PEG 4000 casting): 96%
- Ave. Height (mm) ([2]; 2 ppm in PEG 4000 casting): 13 mm
- Germ (%) ([2]; 4 ppm in PEG 4000 casting): 94%
- Ave. Height (mm) ([2]; 4 ppm in PEG 4000 casting): 11 mm
- Germ (%) ([2]; 8 ppm in PEG 4000 casting): 99%
- Ave. Height (mm) ([2]; 8 ppm in PEG 4000 casting): 9 mm
